Measured values: patent US10744106B2, “Reversibly protected thiolated electrophilic fatty acids as prodrugs” (University of Pittsburgh—Of the Commonwealth System of …, priority 2016, dated 2020)

How the values were obtained:
Assay type in all cases: cell-based, murine
heme oxygenase 1 (HO-1) = experiment: Nrf2-dependent HO-1 transcription in RAW264.7 cells (qPCR, Taqman); details: for HO-1 steady-state mRNA levels, fold vs media and vehicle controls: 8 hours (maximum)
Procedure: (§1) Murine macrophage cells (RAW264.7) were treated with the purified thiolated NO2—OA for 4 hours. RNA was extracted using the Trizol method, quantified using nanodrop technology, reversed transcribed into cDNA and then quantitative PCR was performed using Taqman assays. […] The concentration of 50 μM OA-NO2—Sx induced a similar Nrf2 activation profile for HO-1, NQO-1 and GCLM (18.0-, 6.8- and 6.3-fold, respectively) as 5 μM OA-NO2 (23.5-, 7.7-, 6.8-fold for HO-1, NQO1 and GCLM, respectively) at the 4 hour time point.
(§2) Experimental details: In every experiment, RAW264.7 cells were treated with 7.5, 15, 50 and 100 μM OA-NO2—Sx, 5 μM OA-NO2 two concentrations of methanol (MeOH) to match the lowest and highest amount of vehicle (5 and 100 μM) and a media control only. Within each experiment, there were two or three biological replicates per treatment group. After treatment, RNA was extracted using the Trizol method, quantified using nanodrop technology, reversed transcribed into cDNA and then quantitative PCR (qPCR) was performed using Taqman assays. In each qPCR experiment, there were two technical replicates per sample of RNA. The two technical replicates were then averaged for each biological replicate. The bars in the graph represent mean±standard error of the mean (SEM) of the biological replicates.
(§3) Murine macrophage cells (RAW264.7) were treated with 50 μM OA-NO2—Sx, 5 μM OA-NO2, MeOH (the highest amount of vehicle added to RAW cells to match the highest concentration, which is 50 μM for OA-NO2—Sx) and media alone for 4, 8, 16 and 24 hours. RNA was extracted at each time point using the Trizol method, quantified using nanodrop technology, reversed transcribed into cDNA and then quantitative PCR was performed using Taqman assays. […] There was a similar trend for GCLM mRNA levels (FIG. 7) remained elevated for OA-NO2—Sx (30.0-fold) compared to 1.7-fold for 5 μM OA-NO2 treatment at 16 hours.
(§4) Experimental details: Murine macrophage cells (RAW264.7) were treated with 50 μM OA-NO2—Sx, 5 μM OA-NO2, MeOH (the highest amount of vehicle added to RAW cells to match the highest concentration, which is 50 μM for OA-NO2—Sx) and media alone for 4, 8, 16 and 24 hours. RNA was extracted at each time point using the Trizol method, quantified using nanodrop technology, reversed transcribed into cDNA and then quantitative PCR for HO-1, NQO-1 and GCLM (multiplexed with actin) was performed using Taqman assays. Within each independent experiment, every treatment had at least two biological replicates at each time point. The data represents two independent experiments as mean±SEM.

[1] = system: NAD(P)H dehydrogenase quinone 1 (NQO-1); experiment: Nrf2-dependent NQO-1 transcription in RAW264.7 cells (qPCR, Taqman); details: for NQO-1 transcription, fold vs controls / NQO-1 mRNA levels, fold: RAW264.7
Procedure: as §1, §2, §3, §4

[2] = system: glutamate-cysteine ligase modifier subunit (GCLM); experiment: Nrf2-dependent GCLM transcription in RAW264.7 cells (qPCR, Taqman); details: for GCLM transcription, fold vs controls / GCLM mRNA levels, fold: RAW264.7; for GCLM mRNA levels, fold: 16 hours
Procedure: as §1, §2, §3, §4

[3] = 7.5, 15, 50 and 100 μM, 4 hours, compared to controls

| Compound | HO-1 transcription, fold vs controls (heme oxygenase 1 (HO-1); 50 μM OA-NO2—Sx, 4 hours, RAW264.7) | HO-1 steady-state mRNA levels, fold vs media and vehicle controls (heme oxygenase 1 (HO-1); 50 μM, RAW264.7) | HO-1 mRNA levels, fold (heme oxygenase 1 (HO-1); 50 μM, 16 hours, RAW264.7) | HO-1 mRNA levels (heme oxygenase 1 (HO-1); 50 μM, 24 hours, RAW264.7) | Nrf2-dependent transcription of HO-1, dose response (heme oxygenase 1 (HO-1); [3]) | NQO-1 transcription, fold vs controls ([1]; 50 μM OA-NO2—Sx, 4 hours) | NQO-1 mRNA levels, fold ([1]; 50 μM, 16 hours) | Nrf2-dependent transcription of NQO-1, dose response [1, 3] | GCLM transcription, fold vs controls ([2]; 50 μM OA-NO2—Sx, 4 hours) | GCLM mRNA levels, fold ([2]; 50 μM) | Nrf2-dependent transcription of GCLM, dose response [2, 3] | HO-1 transcription, fold vs controls (heme oxygenase 1 (HO-1); 5 μM OA-NO2, 4 hours, RAW264.7) | HO-1 steady-state mRNA levels, fold vs media and vehicle controls (heme oxygenase 1 (HO-1); 5 μM, RAW264.7) | HO-1 mRNA levels (heme oxygenase 1 (HO-1); 5 μM, 16 hours, RAW264.7) | HO-1 mRNA levels (heme oxygenase 1 (HO-1); 5 μM, 24 hours, RAW264.7) | NQO-1 transcription, fold vs controls ([1]; 5 μM OA-NO2, 4 hours) | NQO-1 mRNA levels, fold ([1]; 5 μM, 8 hours) | NQO-1 mRNA levels, fold ([1]; 5 μM, 16 hours) | GCLM transcription, fold vs controls ([2]; 5 μM OA-NO2, 4 hours) | GCLM mRNA levels, fold ([2]; 5 μM) |
| --- | --- | --- | --- | --- | --- | --- | --- | --- | --- | --- | --- | --- | --- | --- | --- | --- | --- | --- | --- | --- |
| CCCCCCCCC(SC(CCCCCCCC)C(CCCCCCCC(=O)O)[N+](=O)[O-])C(CCCCCCCC(=O)O)[N+](=O)[O-] (centres unmarked) [OA-NO2—Sx, thiolated nitro-oleic acid] | 18.0 fold | 116.5 fold | 7.5 fold | returned to basal levels | dose-dependent increase | 6.8 fold | 701.1 fold | dose-dependent increase | 6.3 fold | 30.0 fold | dose-dependent increase | – | – | – | – | – | – | – | – | – |
| Nitro-oleic acid [OA-NO2, reference compound] | – | – | – | – | – | – | – | – | – | – | – | 23.5 fold | 30.7 fold | returned to baseline | returned to basal levels | 7.7 fold | 115.0 fold | 98.9 fold | 6.8 fold | 1.7 fold |
